From patent US20090060928A1, “Topical Toll Like Receptor Ligands as Vaccine Adjuvants” (priority 2006, published 2009)

Key:
[1] = system: anti-OVA IgG antibodies; experiment: Anti-OVA antibodies in serum by ELISA after sc OVA immunization with adjuvant; format: in vivo, C57BI/6 mice
From the text: Fig. A: Groups of mice were immunized to OVA alone or followed by topical application of imiquimod to the site of immunization 3×/wk. or to OVA in ILK-2 liposomes. One week following 4 weekly immunizations, sera was collected and tested for anti-OVA IgG antibodies by ELISA. Anti-OVA IgG responses was greater in mice treated with imiquimod than in those immunized to OVA alone. It was as strong as that induced by IL-2 liposomes as the adjuvant. Fig. B: One week following 4 weekly immunizations, IgG1, IgG2a, IgG2b, and IgG3 anti-OVA antibodies was measured in these groups by ELISA, using subclass specific antibodies as probes.
(§1) FIG. 3A: Groups of mice were immunized to OVA alone or followed by topical application of imiquimod to the site of immunization 1×/wk. or to a site distal to the immunization. One week following 4 weekly immunizations, sera was collected and tested for anti-OVA IgG subclass antibodies by ELISA. Anti-OVA IgG responses was greater in mice treated with imiquimod both locally and distally than in those immunized to OVA alone. FIG. 3B: Triplicate mice were sacrificed 1 week after 4 immunizations and cellular immune responses to OVA-expressing target E.G7-OVA cells determined by ELIspot assay
(§2) In more detail, groups of 10 C57BI/6 mice were immunized sc weekly×4 to 0.1 mg of ovalbumin (OVA). Some groups were in addition treated with 5% imiquimod cream applied topically to the immunization site once or 3×/week. Control groups were immunized to PBS, to OVA encapsulated into IL-2 liposomes (which we have previously shown is one of the strongest adjvuanrts available), or to irradiated E.G7-OVA cells (a powerful stimulator of anti-OVA T-cell responses). Serum was collected from each mouse at baseline and following the 4th immunization, pooled by immunization group, and assayed for antibodies to OVA by ELISA.
In these experiments, groups of […] mice were immunized sc weekly×4 to 0.1 mg of ovalbumin (OVA) given in 0.1 ml of PBS injected in the lower abdominal region. One group of mice was also treated with 5% imiquimod applied topically to the skin at a site distal (in the nape of the neck) to the immunization site 1×/week.

[2] = system: E.G7-OVA cells; experiment: ELISPOT (gamma-interferon release) of spleen cells for T-cell response to OVA positive target cells; format: in vivo, C57BI/6 mice; conditions: for cellular response to OVA by ELISPOT: FIG. 3B; for T-cell (cellular) response by ELISPOT: FIG. 2A
From the text: FIG. 1A: Mice were immunized to OVA with or without topical application of imiquimod treatment 1× or 3×/wk following each immunization. Spleen cells were collected from each group 1 week following 4 immunizations, and tested by ELISPOT (based on gamma-interferon release) for T-cell response to OVA positive target cells (E.G7-OVA). FIG. 2B Mice were immunized to OVA with topical application of imiquimod 3×/week or with OVA encapsulated into IL-2 liposomes. Imiquimod boosted T-cell responses more strongly than IL-2 liposomes.
as §1, §2
Imiquimod boosted in particular Ig2a and IgG2b responses which were almost undetectable in mice immunized to OVA alone (see FIG. 1 B). This is consistent with the known capacity of this agent to preferentially boost Th1 responses. […] No T-cell responses were detectable in mice immunized similarly to OVA alone.
By contrast, no significant T-cell responses above PBS controls were detectable in mice immunized similarly to OVA alone. We have not studied the adjuvant activity of other TLR receptor ligands such as resiquimod and CpG ODN applied topically away from the immunization site. […] Thus, it is reasonable to expect that all of these will also retain adjuvant activity when applied topically directly over, or away, from the immunization site. Because their specific mechanism of action differs from that of imiquimod, they may have stronger adjuvant activity or may be better able to enhance specific type of immune responses than imiquimod. Combinations of TLR ligands may be able to enhance stronger or broader type of immune response than any one individual TLR ligand alone. This invention is intended to cover these different possibilities.

[3] = system: OVA positive tumor cells; experiment: Vaccine-induced tumor protective immunity against lethal challenge; format: in vivo, mice; conditions: 5% cream topically over site of sc OVA immunization
From the text: Importantly, the potency of imiquimod was as great as that of the strongest adjuvant we have studied to date in mice but with less local toxicity.

[4] = Local toxicity of the adjuvant; format: in vivo; conditions: adjuvant with sc OVA immunization
[5] = topical imiquimod at immunization site, vs OVA only, FIG. 1B

CC(C)Cn1cnc2c(N)nc3ccccc3c21 [imiquimod]
overall IgG anti-OVA antibody response ([1]; OVA 0.1 mg sc weekly x4 + topical imiquimod at immunization site 3x/wk, vs OVA alone, FIG. 1A): considerably greater | IgG2a titer, times stronger than OVA alone ([1]; distal imiquimod treatment): 25 times | IgG2b titer, stronger than OVA alone ([1]; distal imiquimod treatment): 125 | IgG2a titer, times stronger than OVA alone ([1]; local imiquimod treatment): 125 times | IgG2b titer, stronger than OVA alone ([1]; local imiquimod treatment): 125 | IgG1 anti-OVA antibody response [1, 5]: reduced | IgG2a anti-OVA antibody response [1, 5]: markedly boosted | IgG2b anti-OVA antibody response [1, 5]: markedly boosted | anti-OVA IgG subclass response ([1]; topical imiquimod both local and distal to vaccine injection site, vs OVA alone, FIG. 3A): considerably greater | cellular response to OVA by ELISPOT ([2]; distal application of imiquimod): strong cellular responses | T-cell (cellular) response by ELISPOT ([2]; imiquimod applied to immunization site 1x/wk following each immunization): slight response | T-cell (cellular) response by ELISPOT ([2]; imiquimod applied to immunization site 3x/week): very strong response | cellular response to OVA by ELISPOT ([2]; local application of imiquimod): strong cellular responses | T-cell response compared with IL-2 liposomes ([2]; topical imiquimod 3x/week vs OVA in IL-2 liposomes, FIG. 2B): more potent stimulator of T-cell responses than IL-2 liposomes | vaccine-induced tumor protective immunity [3]: markedly increased | local toxicity [4]: no toxicity at all
